Assay results: patent US6828294B2, “High retention sanitizer systems” (FMC Corporation, priority 2001, dated 2004)

Assays:
[1] = Stability of PAA in compositions and in presence of chelators (PAA test strips); conditions: for PAA present immediately after preparation of the solution / time after which no PAA was detectable: chelator plus 0.170 g of 5% PAA in 100 g DI water, PAA test strips
Description: A sanitizer composition containing 0.25% SLS, 0.05% LA, 0.125% magnesium sulfate, and 85 ppm PAA was prepared in the 300 ppm total hardness water described in Example 8. This solution was applied to a stainless steel cabinet (34.5 in.×72 in.) in the meat pilot plant with a FOAM-IT® 5 unit using the driest foam setting.
This Example illustrates the effect of chelating agent on sanitizer compositions. The amount of chelator added is intended to chelate a concentration of ions corresponding to 300 ppm hard water, which corresponds to 3 millimolar. Because water will often have a hardness of less than 300 ppm, leaving an excess of chelator, it is important to evaluate the stability of PAA with respect to the chelator. The excess chelator could cause increases in pH, which would decrease the amount of PAA present according to the reaction (Preparation, Properties, Reactions and Uses of Organic Peracids and their Salts, FMC Corporation, Inorganic Chemicals Division, New York, N.Y., 1964, p. 34):
Therefore, in anticipation of the worst case where soft water is used to prepare the solution from which the foam is generated, the stability of PAA in the presence of at least 3 millimolar of chelator was evaluated.
0.125 g of Na4EDTA and 0.170 g of 5% PAA were added to 100 g of DI water.
0.161 g of Na3EDTA and 0.170 g of 5% PAA were added to 100 g of DI water.
0.233 g of Na2EDTA and 0.170 g of 5% PAA were added to 100 g of DI water.

pH of solutions = format: physicochemical; conditions: chelator solutions in DI water in the absence of PAA, pH test paper
[2] = Turbidity of lauryl sulfate solutions in hard water (Example 8); format: physicochemical
Description: When a 0.25% MLS solution was prepared in water containing 333 ppm of calcium chloride, the solution became turbid after about 2 min.
Hard water contains both magnesium and calcium ions. For a 300 ppm total hardness (expressed as calcium carbonate), there is about 200 ppm hardness as calcium and 100 ppm hardness as magnesium (AOAC Official Methods of Analysis, 1995, Chapter 6, p. 10). […] When 0.25% solution of MLS was prepared in 300 ppm total hardness water containing calcium and magnesium ions in this ratio, the solution became turbid after about 5 minutes.

[3] = 0.25% solution in 300 ppm total hardness water containing calcium and magnesium ions
[4] = 0.25% solution in water containing 333 ppm of calcium chloride

| Molecule | stability of PAA in the presence of the chelator [1] | PAA present immediately after preparation of the solution [1] | pH (pH of solutions) | further results |
| --- | --- | --- | --- | --- |
| O=P([O-])(O)CN(CCN(CCN(CP(=O)(O)O)CP(=O)(O)O)CP(=O)(O)O)CP(=O)(O)O.[Na+] [DEQUEST 2066] | not found any chelator in salt form in which PAA is stable | – | – | – |
| CC(O)(P(=O)(O)O)P(=O)(O)O [DEQUEST® 2010, 1-hydroxyethylidene-1,1-diphosphonic acid] | stable | – | – | – |
| O=C([O-])CN(CCN(CC(=O)[O-])CC(=O)O)CC(=O)O.[Na+].[Na+] [Na2EDTA] | – | at least 50 ppm | 4 | time after which no PAA was detectable [1]: ~10 min |
| O=C([O-])CN(CCN(CC(=O)[O-])CC(=O)O)CC(=O)[O-].[Na+].[Na+].[Na+] [Na3EDTA] | – | at least 50 ppm | 7.5 | time after which no PAA was detectable [1]: ~5 min |
| O=C([O-])CN(CCN(CC(=O)[O-])CC(=O)[O-])CC(=O)[O-].[Na+].[Na+].[Na+].[Na+] [Na4EDTA] | – | no PAA present | 10 | – |
| CCCCCCCCCCCCOS(=O)(=O)[O-].[Na+] [SLS, Sodium lauryl sulfate] | – | – | – | time until solution became turbid [2, 3]: immediately became turbid; time until solution became turbid [2, 4]: instantly became turbid |
| O=C([O-])CN(CCN(CC(=O)[O-])CC(=O)[O-])CCN(CC(=O)[O-])CC(=O)[O-].[Na+].[Na+].[Na+].[Na+].[Na+] [pentasodium salt of diethylenetriaminepentaacetic acid] | not found any chelator in salt form in which PAA is stable | – | – | – |
| Magnesium lauryl sulfate [MLS] | – | – | – | time until solution became turbid [2, 3]: about 5 minutes; time until solution became turbid [2, 4]: about 2 min |
| sodium salts of diethylene triamine pentaacetic acid | rapidly decomposes | – | – | – |
